Results published in paper PMC10222582, “Iminosugar-Based Nicotinamide Phosphoribosyltransferase (NAMPT) Inhibitors as Potential Anti-Pancreatic Cancer Agents” (Pharmaceutics, 2023).

Legend:
recombinant human NAMPT = molecular target: T1, recombinant human NAMPT (Homo sapiens, UniProt P43490); assay: NAMPT inhibition (fluorometric NMN detection); assay type: biochemical; settings: NI = No inhibition at concentration < 1 mM, SD < 20%
T1 construct: purchased Abcam ab198090

MiaPaCa-2 cells [1] = assay: Cell viability assay (SRB); assay type: cell-based; settings: Homo sapiens, MIA PaCa-2, MiaPaCa-2, 72 h
Method: Cell viability assay. MiaPaCa-2 cells (2 × 10^3/well) were plated in 96−well plates and left to adhere overnight. After 24 h the cells were treated with the inhibitors. Viability was determined after 72 h. The culture plates were fixed with cold 3% trichloroacetic acid at 4 °C for 30 min, washed with cold water and dried overnight. Finally, the plates were stained with 0.4% sulforodhamine B (SRB) in 1% acetic acid, washed four times with 1% acetic acid to remove unbound dye, dried overnight and then the stain was extracted with 10 mM Tris Base and the absorbance was read at 560 nm.
Then, the new compounds were tested in vitro for their anti-proliferative effect, using the human pancreatic cancer cell line MiaPaca-2 in the cytotoxicity assays (Table 1).

MiaPaCa-2 cells [2] = assay: Measurement of intracellular NAD+ levels (cycling enzymatic assay); assay type: cell-based, human; settings: 24 h, 100 μM of inhibitor, SD < 20%
MiaPaCa-2 cells [3] = assay: as above; assay type: cell-based, human; parameters: dose or concentration left out as unconfirmed; settings: after 24 h
Method: Measurement of intracellular NAD^+ levels. MiaPaCa-2 cells were plated at a density of 6.5 × 10^4 cells/well in 12−well plates. After 24 h, cells were treated (or not) with the different compounds and cultured for a further 24 h. Cells were harvested and lysed in 0.1 mL 0.6 M perchloric acid. Intracellular NAD^+ levels were determined with a cycling enzymatic assay, as previously reported.
In order to confirm that the above-mentioned anti-proliferative effect of the new NAMPT inhibitors were associated with NAD^+ depletion, we evaluated the intracellular NAD^+ concentration (iNAD^+) in MiaPaCa-2 cells for all the compounds (at a fixed […] concentration). After 24 h, only the iminosugar-based inhibitors 22 (77%) and 29 (79%), as well as the non-carbohydrate analogue 42 (61%), led to significant depletion; the other compounds exerted an effect in the 0–10% range.

[4] = NI (footnote 3) = No inhibition at concentration < 400 μM, SD < 20%

T1 sequence (P43490 whole entry): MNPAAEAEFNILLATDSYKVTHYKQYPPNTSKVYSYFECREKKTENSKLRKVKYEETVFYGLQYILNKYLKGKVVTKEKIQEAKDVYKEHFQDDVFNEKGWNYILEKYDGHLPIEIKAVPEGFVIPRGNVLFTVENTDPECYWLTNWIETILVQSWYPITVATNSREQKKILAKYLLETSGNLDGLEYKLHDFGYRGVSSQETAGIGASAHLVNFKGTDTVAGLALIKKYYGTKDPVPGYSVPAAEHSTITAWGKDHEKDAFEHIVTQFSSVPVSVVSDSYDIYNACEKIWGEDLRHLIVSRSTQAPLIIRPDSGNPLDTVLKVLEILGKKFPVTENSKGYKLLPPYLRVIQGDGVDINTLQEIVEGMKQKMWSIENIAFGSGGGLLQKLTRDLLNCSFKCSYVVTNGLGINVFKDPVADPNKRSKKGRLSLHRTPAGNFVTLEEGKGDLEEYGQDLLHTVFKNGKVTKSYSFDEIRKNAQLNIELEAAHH

| IC50 (recombinant human NAMPT) [µM] | IC50 (MiaPaCa-2 cells [1]; [4]) [µM] | IC50 (MiaPaCa-2 cells [1]; NI (footnote 2) = No inhibition at concentration < 100 μM) [µM] | Structure (SMILES) | iNAD+ Depletion (%) (MiaPaCa-2 cells [2]) | intracellular NAD+ depletion (MiaPaCa-2 cells [3]) [%] |
| --- | --- | --- | --- | --- | --- |
| 283 | 698 | – | O=C(NCc1ccc(C(=O)Nc2ccccc2)cc1)c1ccccc1 [Compound 43] | 1 | – |
| – | 0.0024 | – | O=C(/C=C/c1cccnc1)NCCCCC1CCN(C(=O)c2ccccc2)CC1 [FK866, reference compound] | 90 | – |
| 43 | > 400 | – | CC(C)(C)c1ccc(S(=O)(=O)NCc2ccc(C(=O)Nc3ccccc3)cc2)cc1 [Compound 42] | 61 | 61 |
| > 1000 | 91.4 | – | O=C(CCCC1CCN(C(=O)c2ccccc2)CC1)Nc1ccccc1 [Compound 35] | 4 | – |
| 113 | 340 | – | O=C(CCCCCNC(=O)c1ccccc1)Nc1ccccc1 [Compound 38] | 0 | – |

More lines, now with the values behind:

| Structure (SMILES) | IC50 (recombinant human NAMPT) [µM] | IC50 (MiaPaCa-2 cells [1]; [4]) [µM] | IC50 (MiaPaCa-2 cells [1]; NI (footnote 2) = No inhibition at concentration < 100 μM) [µM] | iNAD+ Depletion (%) (MiaPaCa-2 cells [2]) | intracellular NAD+ depletion (MiaPaCa-2 cells [3]) [%] |
| --- | --- | --- | --- | --- | --- |
| COC[C@H]1N[C@@H](c2ccc(NC(=O)CCCCCNC(=O)c3ccccc3)cc2)[C@H](OC)[C@@H]1OC [Compound 28] | 603 | > 400 | – | 3 | – |
| COC[C@H]1N[C@@H](c2ccc(NC(=O)CCCC3CCN(C(=O)c4ccccc4)CC3)cc2)[C@H](OC)[C@@H]1OC [Compound 27] | > 1000 | 539 | – | 0 | – |
| COC[C@H]1N[C@@H](c2ccc(NC(=O)c3ccc(CNC(=O)c4ccccc4)cc3)cc2)[C@H](OC)[C@@H]1OC [Compound 30] | > 1000 | 920 | – | 0 | – |
| COC[C@H]1N[C@@H](c2ccc(NC(=O)c3ccc(CNS(=O)(=O)c4ccc(C(C)(C)C)cc4)cc3)cc2)[C@H](OC)[C@@H]1OC [Compound 29] | 63 | 32 | – | 79 | 79 |
| O=C(NCc1ccc(C(=O)Nc2ccc([C@@H]3N[C@H](CO)[C@@H](O)[C@H]3O)cc2)cc1)c1ccccc1 [Compound 25] | > 1000 | > 400 | – | 0 | – |
| CC(C)(C)c1ccc(S(=O)(=O)N2CCC(CCCC(=O)Nc3ccccc3)CC2)cc1 [Compound 34] | 357 | 46.6 | – | 6 | – |
| COC[C@H]1N[C@@H](c2ccc(NC(=O)CCCC3CCN(S(=O)(=O)c4ccc(C(C)(C)C)cc4)CC3)cc2)[C@H](OC)[C@@H]1OC [Compound 26] | 139 | 37 | – | 10 | – |
| CC(C)(C)c1ccc(S(=O)(=O)N2CCC(CCCC(=O)Nc3ccc([C@@H]4N[C@H](CO)[C@@H](O)[C@H]4O)cc3)CC2)cc1 [Compound 21] | > 1000 | – | > 400 | 0 | – |
| CC(C)(C)c1ccc(S(=O)(=O)NCc2ccc(C(=O)Nc3ccc([C@@H]4N[C@H](CO)[C@@H](O)[C@H]4O)cc3)cc2)cc1 [Compound 24] | 549 | > 400 | – | 9 | – |
| O=C(CCCCCNC(=O)c1ccccc1)Nc1ccc([C@@H]2N[C@H](CO)[C@@H](O)[C@H]2O)cc1 [Compound 23] | 363 | > 400 | – | 5 | – |
| O=C(CCCC1CCN(C(=O)c2ccccc2)CC1)Nc1ccc([C@@H]2N[C@H](CO)[C@@H](O)[C@H]2O)cc1 [Compound 22] | 99.5 | 108 | – | 77 | 77 |
